Measured values from patent US20260240818A1, “METHODS FOR THE TREATMENT OF FOOD ALLERGY” (INSTITUT NATIONAL DE LA SANTÉ ET DE LA RECHERCHE MÉDICALE, priority 2023, published 2026).
Entries after “also recorded” stand apart in the source; their conditions may differ.

How the values were obtained:
[1] = test system: peanut-sensitized mice; assay: Peanut allergy mouse model: clinical score and diarrhoea after oral peanut extract challenge; type: in vivo; conditions: for clinical score / incidence of diarrhoea: FOS-enriched diet; for clinical score: average of days 1-3 of oral PE challenge; for incidence of diarrhoea: oral PE challenge
Method: All mice were bred and maintained on a peanut- and soy-free diet under specific pathogen-free conditions until the start of the experiment.
Pyridoxamine: pyridoxamine dihydrochloride (Sigma-Aldrich, France) is added to drinking water at 1 mg/ml throughout the experiment.
RAGE antagonist FPS-ZM1: twice weekly 100 μl IP injections of FPS-ZM1 in PBS (Sigma Aldrich, France) at 0 (control group), 0.5, or 1 mg/kg b.w. were performed throughout the experiment.
Clinical score (Table 2) was continually observed from 15 to 50 minutes after oral allergen challenge and noted for each mouse. For analysis purposes, the average clinical score of the first 3 days of challenge is calculated for each mouse.
Experimental groups were compared by One-Way ANOVA, selected groups were compared using Holm-Sidak's correction for multiple comparisons. For diarrhoea data, pairwise comparisons of survival curves were performed and analysed by Mantel-Cox log-rank test.

[2] = test system: peanut-specific IgE; assay: Peanut-specific IgE ELISA on serum from the peanut allergy model; type: in vivo, mouse; conditions: FOS-enriched diet, serum after last PE challenge
Method: On days 1, 7, and 21 mice were sensitized with 500 μg of peanut extract (PE) together with 2 mg of Imject alum (Thermo Fisher, France) by intraperitoneal (IP) injection (100 μl in PBS). Starting from day 35, for 7 days, mice were challenged with 30 mg of PE in NaHCO3 (0.1M) by oral gavage, and clinical score (Table 2) and occurrence of diarrhoea was registered for 1 hours after each gavage. After the last challenge, blood is collected for serum extraction. Non-allergic control animals were sham sensitized (2 mg alum but no peanut extract) but challenged like the other experimental groups. Peanut Extract (PE) was coated on ELISA plates at 5 μg/ml in 0.05 M sodium carbonate-bicarbonate buffer (Sigma-Aldrich, France) over-night at 4° C., plates were washed 3 times with PBS-0.05% Tween 20 (Sigma-Aldrich, France). […] Sample preparation: Mouse serum from blood collected 1 hour after the last oral peanut challenge was diluted 1/50 in ELISA assay buffer (1×) from the ELISA kit used. The colorimetric reaction was stopped by addition of H2SO4 (5M) and absorbance was recorded at 450 nm.

[3] = FPS-ZM1 0.5 or 1 mg/kg b.w. i.p. twice weekly
[4] = pyridoxamine 1 mg/ml in drinking water throughout

SMILES: O=C(c1ccc(Cl)cc1)N(Cc1ccccc1)C1CCCCC1 [FPS-ZM1, 4-Chloro-N-cyclohexyl-N-(phenylmethyl)benzamide]
- FOS-induced aggravating effects in a mouse model of peanut allergy [1, 3]: eliminates; also recorded: limit
- clinical score [1, 3]: lowering
- incidence of diarrhoea [1, 3]: lowering
- allergen-specific IgE levels [2, 3]: lowering

SMILES: Cc1ncc(CO)c(CN)c1O [pyridoxamine]
- aggravating effects of the FOS-enriched diet on peanut allergic reactions [1, 4]: eliminates; also recorded: block
- clinical score [1, 4]: reduced
- incidence of diarrhoea [1, 4]: reduced
- serum peanut-specific IgE levels [2, 4]: reduced
